{"source": "patent US20150376225A1", "about": "“NOVEL COMPOUNDS OF 11BETA-HYDROXY-STEROIDS FOR USE IN MITOCHONDRIA BIOGENESIS AND DISEASES ASSOCIATED WITH MITOCHONDRIAL DYSFUNCTION OR DEPLETION” (SPHAERA PHARMA PVTD. LTD., priority 2013, published 2015)", "data": [{"system": "AMPK", "experiment": "AMPK activation, cell based ELISA in Hep G2 cells", "details": "1 h incubation, DMSO control as 100%", "procedure": "AMPK Activation Protocol:\nAMPK activation potential of the compounds was evaluated using cell based ELISA.\nHepatoma (Hep G2) liver cells were maintained in a T 75 culture flask-containing 25 mM DMEM+10% fetal calf serum. The cells were maintained in a T 75 culture flask-containing medium (DMEM+10% fetal calf serum). On reaching a confluence of 70 to 80%, the cells were seeded in a 96 well plate at a density of 40,000 cells per well in 25 mM DMEM+10% FCS medium. The plates were then incubated at 37° C. with 5% CO2 for 24 hours. Various concentrations of drugs were prepared in DMSO and diluted to required concentration with the medium and incubated at 37° C. with 5% CO2 for 30 min and 1 h for Epicatechin analogs and 11-BHP analogs respectively. Metformin was used as positive control. Cells were fixed with 4% formaldehyde for 30 minutes at room temperature and washed three times with PBS containing 0.1% Triton X-100. Endogenous peroxidase was quenched with 1% H2O2 in PBS-T (0.1% Tween 20) for 30 minutes and washed three times in PBS-T. Cells were blocked with 1% BSA in PBS-T for 1 hour.", "units": {"% activation pAMPK at 1 nM": "%"}, "values": [{"smiles": "C[C@]12CCC(=O)C=C1CCC1C2[C@@H](O)C[C@]2(C)C(=O)CCC12", "note": "(stereo partly drawn) [Compound 1019, (10R,11S,13S)-11-hydroxy-10,13-dimethyl-1,6,7,8,9,10,11,12,13,14,15,16-dodecahydro-3H-cyclopenta[a]phenanthrene-3,17(2H)-dione]", "% activation pAMPK at 1 nM": 103}, {"smiles": "CC(=O)[C@H]1CCC2C3CCC4C[C@@H](O)CC[C@]4(C)C3[C@@H](O)C[C@@]21C", "note": "(stereo partly drawn) [Compound 1042, 1-((3S,10S,11S,13S,17S)-3,11-dihydroxy-10,13-dimethylhexadecahydro-1H-cyclopenta[a]phenanthren-17-yl)ethan-1-one]", "% activation pAMPK at 1 nM": 96}, {"smiles": "CN(C)C(=O)C1CCC2C3CCC4=CC(=O)CC[C@]4(C)C3[C@@H](O)C[C@]12C", "note": "(stereo partly drawn) [Compound 1030, (10R,11S,13S)-11-hydroxy-N,N,10,13-tetramethyl-3-oxo-2,3,6,7,8,9,10,11,12,13,14,15,16,17-tetradecahydro-1H-cyclopenta[a]phenanthrene-17-carboxamide]", "% activation pAMPK at 1 nM": 105}, {"smiles": "CC(=O)C1CCC2C3CC=C4CC5(CC[C@]4(C)C3[C@@H](O)C[C@]12C)OCCO5", "note": "(stereo partly drawn) [Compound 1029, 1-((10R,11S,13S)-11-hydroxy-10,13-dimethyl-1,2,4,7,8,9,10,11,12,13,14,15,16,17-tetradecahydrospiro[cyclopenta[a]phenan-threne-3,2′-[1,3]dioxolan]-17-yl)ethan-1-one]", "% activation pAMPK at 1 nM": 105}, {"smiles": "CC(O)C1CCC2C3CCC4CC5(CC[C@]4(C)C3[C@@H](O)C[C@]12C)OCCO5", "note": "(stereo partly drawn) [Compound 1039, (10S,11S,13S)-17-(1-hydroxyethyl)-10,13-dimethylhexadecahydrospiro[cyclopenta[a]phenanthrene-3,2′-[1,3]dioxolan]-11-ol]", "% activation pAMPK at 1 nM": 100}, {"smiles": "CN(C)C(=O)C1CCC2C3CCC4CC(=O)CC[C@]4(C)C3[C@@H](O)C[C@]12C", "note": "(stereo partly drawn) [Compound 1033, (10S,11S,13S)-11-hydroxy-N,N,10,13-tetramethyl-3-oxohexadecahydro-1H-cyclopenta[a]phenanthrene-17-carboxamide]", "% activation pAMPK at 1 nM": 107}, {"smiles": "CC(O)[C@H]1CCC2C3CCC4C[C@@H](O)CC[C@]4(C)C3[C@@H](O)C[C@@]21C", "note": "(stereo partly drawn) [Compound 1040, (3S,10S,11S,13S,17S)-17-(1-hydroxyethyl)-10,13-dimethylhexadecahydro-1H-cyclopenta[a]phenanthrene-3,11-diol]", "% activation pAMPK at 1 nM": 95}, {"smiles": "C[C@]12CCC(=O)C=C1CCC1C2[C@@H](O)C[C@@]2(C)C1CC[C@]2(O)C(=O)O", "note": "(stereo partly drawn) [Compound 1023, (10R,11S,13S,17R)-11,17-dihydroxy-10,13-dimethyl-3-oxo-2,3,6,7,8,9,10,11,12,13,14,15,16,17-tetradecahydro-1H-cyclopenta[a]phenanthrene-17-carboxylic acid]", "% activation pAMPK at 1 nM": 127}, {"smiles": "CC[C@H]1CCC2C3CC=C4C[C@@H](O)CC[C@]4(C)C3[C@@H](O)C[C@@]21C", "note": "(stereo partly drawn) [Compound 1041, (3S,10R,11S,13R,17S)-17-ethyl-10,13-dimethyl-2,3,4,7,8,9,10,11,12,13,14,15,16,17-tetradecahydro-1H-cyclopenta[a]phenanthrene-3,11-diol]", "% activation pAMPK at 1 nM": 95}, {"smiles": "CC(=O)[C@H]1CCC2C3CC=C4C[C@@H](O)CC[C@]4(C)C3[C@@H](O)C[C@@]21C", "note": "(stereo partly drawn) [Compound 1016, 1-((3S,10R,11S,13S,17S)-3,11-dihydroxy-10,13-dimethyl-2,3,4,7,8,9,10,11,12,13,14,15,16,17-tetradecahydro-1H-cyclopenta[a]phenanthren-17-yl)ethan-1-one]", "% activation pAMPK at 1 nM": 104}, {"smiles": "C[C@]12CCC(=O)C=C1CCC1C2[C@@H](O)C[C@]2(C)/C(=N/O)CCC12", "note": "(stereo partly drawn) [Compound 1024, (10R,11S,13S,E)-11-hydroxy-17-(hydroxyimino)-10,13-dimethyl-1,2,6,7,8,9,10,11,12,13,14,15,16,17-tetradecahydro-3H-cyclopenta[a]phenanthren-3-one]", "% activation pAMPK at 1 nM": 133}, {"smiles": "C[C@]12CCC(=O)C=C1CCC1C2[C@@H](O)C[C@@]2(C)C1CC[C@@]21OCC1=O", "note": "(stereo partly drawn) [Compound 1028, (10R,11S,13S,17R)-11-hydroxy-10,13-dimethyl-1,6,7,8,9,10,11,12,13,14,15,16-dodecahydrospiro[cyclopenta[a]phenanthrene-17,2′-oxetane]-3,3′(2H)-dione]", "% activation pAMPK at 1 nM": 103}, {"smiles": "CC(=O)[C@H]1CCC2C3CCC4=CC(=O)CC[C@]4(C)C3[C@@H](O)C[C@@]21C", "note": "(stereo partly drawn) [Compound 1025, (10R,11S,13S,17S)-17-acetyl-11-hydroxy-10,13-dimethyl-1,2,6,7,8,9,10,11,12,13,14,15,16,17-tetradecahydro-3H-cyclopenta[a]phenanthren-3-one]", "% activation pAMPK at 1 nM": 118}, {"smiles": "CC(=O)[C@H]1CCC2C3CC=C4C[C@@H](O)CC[C@]4(C)C3[C@@](C)(O)C[C@@]21C", "note": "(stereo partly drawn) [Compound 1047, 1-((3S,10R,11S,13S,17S)-3,11-dihydroxy-10,11,13-trimethyl-2,3,4,7,8,9,10,11,12,13,14,15,16,17-tetradecahydro-1H-cyclopenta[a]phenanthren-17-yl)ethan-1-one]", "% activation pAMPK at 1 nM": 119}, {"smiles": "C[C@]12CC/C(=N/O)C=C1CCC1C2[C@@H](O)C[C@]2(C)/C(=N/O)CCC12", "note": "(stereo partly drawn) [Compound 1022, (3Z,10R,11S,13S,17E)-11-hydroxy-10,13-dimethyl-1,6,7,8,9,10,11,12,13,14,15,16-dodecahydro-3H-cyclopenta[a]phenanthrene-3,17(2H)-dione dioxime]", "% activation pAMPK at 1 nM": 129}, {"smiles": "C[C@]12CC[C@H](O)CC1=CCC1C2[C@@H](O)C[C@@]2(C)C1CC[C@@H]2O", "note": "(stereo partly drawn) [Compound 1017, (3S,10R,11S,13S,17S)-10,13-dimethyl-2,3,4,7,8,9,10,11,12,13,14,15,16,17-tetradecahydro-1H-cyclopenta[a]phenanthrene-3,11,17-triol]", "% activation pAMPK at 1 nM": 97}, {"smiles": "C/C(=N/O)[C@H]1CCC2C3CCC4=C/C(=N\\O)CC[C@]4(C)C3[C@@H](O)C[C@@]21C", "note": "(stereo partly drawn) [Compound 1031, (10R,11S,13S,17S,Z)-11-hydroxy-17-((Z)-1-(hydroxyimino)ethyl)-10,13-dimethyl-1,2,6,7,8,9,10,11,12,13,14,15,16,17-tetradecahydro-3H-cyclopenta[a]phenanthren-3-one oxime]", "% activation pAMPK at 1 nM": 109}, {"smiles": "CO[C@H]1CC[C@@]2(C)C(=CCC3C2[C@@H](O)C[C@@]2(C)C3CC[C@@H]2C(C)=O)C1", "note": "(stereo partly drawn) [Compound 1038, 1-((3S,10R,11S,13S,17S)-11-hydroxy-3-methoxy-10,13-dimethyl-2,3,4,7,8,9,10,11,12,13,14,15,16,17-tetradecahydro-1H-cyclopenta[a]phenanthren-17-yl)ethan-1-one]", "% activation pAMPK at 1 nM": 103}, {"smiles": "CC(O)C1CCC2C3CC=C4C[C@@H](O)CC[C@]4(C)C3[C@@H](O)C[C@]12C", "note": "(stereo partly drawn) [Compound 1036, (3S,10R,11S,13S)-17-(1-hydroxyethyl)-10,13-dimethyl-2,3,4,7,8,9,10,11,12,13,14,15,16,17-tetradecahydro-1H-cyclopenta[a]phenanthrene-3,11-diol]", "% activation pAMPK at 1 nM": 102}, {"smiles": "C[C@]12C[C@H](O)C3C(CCC4=CC(=O)CC[C@@]43C)C1CCC2C(=O)CO", "note": "(stereo partly drawn) [Compound 1048, (10R,11S,13S)-11-hydroxy-17-(2-hydroxyacetyl)-10,13-dimethyl-1,2,6,7,8,9,10,11,12,13,14,15,16,17-tetradecahydro-3H-cyclopenta[a]phenanthren-3-one]", "% activation pAMPK at 1 nM": 108}, {"smiles": "CC(=O)[C@H]1CCC2C3CCC4=CC(=O)CC[C@]4(C)C3[C@@](C)(O)C[C@@]21C", "note": "(stereo partly drawn) [Compound 1035, (10R,11S,13S,17S)-17-acetyl-11-hydroxy-10,11,13-trimethyl-1,2,6,7,8,9,10,11,12,13,14,15,16,17-tetradecahydro-3H-cyclopenta[a]phenanthren-3-one]", "% activation pAMPK at 1 nM": 102}, {"smiles": "C[C@]12C[C@H](O)C3C(CCC4=CC(=O)CC[C@@]43C)C1CCC2C(=O)O", "note": "(stereo partly drawn) [Compound 1020, (10R,11S,13S)-11-hydroxy-10,13-dimethyl-3-oxo-2,3,6,7,8,9,10,11,12,13,14,15,16,17-tetradecahydro-1H-cyclopenta[a]phenanthrene-17-carboxylic acid]", "% activation pAMPK at 1 nM": 132}, {"smiles": "C[C@]12CCC(=O)C=C1CCC1C2[C@@H](O)C[C@@]2(C)C1CC[C@@H]2O", "note": "(stereo partly drawn) [Compound 1018, (10R,11S,13S,17S)-11,17-dihydroxy-10,13-dimethyl-1,2,6,7,8,9,10,11,12,13,14,15,16,17-tetradecahydro-3H-cyclopenta[a]phenanthren-3-one]", "% activation pAMPK at 1 nM": 106}, {"smiles": "CC(O)C1CCC2C3CC=C4CC5(CC[C@]4(C)C3[C@@H](O)C[C@]12C)OCCO5", "note": "(stereo partly drawn) [Compound 1021, (10R,11S,13S)-17-(1-hydroxyethyl)-10,13-dimethyl-1,2,4,7,8,9,10,11,12,13,14,15,16,17-tetradecahydrospiro[cyclopenta[a]phenanthrene-3,2′-[1,3]dioxolan]-11-ol]", "% activation pAMPK at 1 nM": 129}, {"smiles": "[2H][C@]1(O)CC[C@@]2(C)C(=CCC3C2[C@@H](O)C[C@@]2(C)C3CC[C@@H]2C(C)=O)C1", "note": "(stereo partly drawn) [Compound 1045, 1-((3S,10R,11S,13S,17S)-3,11-dihydroxy-10,13-dimethyl-2,3,4,7,8,9,10,11,12,13,14,15,16,17-tetradecahydro-1H-cyclopenta[a]phenanthren-17-yl-3-d)ethan-1-one]", "% activation pAMPK at 1 nM": 116}, {"smiles": "C[C@]12CCC(=O)CC1CCC1C2[C@@H](O)C[C@]2(C)C(=O)CCC12", "note": "(stereo partly drawn) [Compound 1034, (10S,11S,13S)-11-hydroxy-10,13-dimethyltetradecahydro-3H-cyclopenta[a]phenanthrene-3,17(2H)-dione]", "% activation pAMPK at 1 nM": 104}]}]}
